Experimental data: PMC11790914, “Chemogenomics for steroid hormone receptors (NR3)” (Communications Chemistry, 2025)
Values joined by “and” are separate entries in the source; they are usually repeats but may differ in a detail not shown here. Equal values may be shown once.

Tests used:
[1] = tested on: HEK293T cells; test: Cytotoxicity: apoptosis induction (caspase-3/7 DEVD fluorogenic DNA dye); conditions: for Apoptosis induction [AI]: single replicates
[2] = target: T1, AURKA (Homo sapiens, UniProt O14965); test: Liability panel screening by DSF: AURKA; format: binding; conditions: DSF, 20 µM, n=2; for ΔTm at 20 µM: read-out: Mean ΔTM AURKA
T1 construct: made in house
T1 sequence (O14965 1-403): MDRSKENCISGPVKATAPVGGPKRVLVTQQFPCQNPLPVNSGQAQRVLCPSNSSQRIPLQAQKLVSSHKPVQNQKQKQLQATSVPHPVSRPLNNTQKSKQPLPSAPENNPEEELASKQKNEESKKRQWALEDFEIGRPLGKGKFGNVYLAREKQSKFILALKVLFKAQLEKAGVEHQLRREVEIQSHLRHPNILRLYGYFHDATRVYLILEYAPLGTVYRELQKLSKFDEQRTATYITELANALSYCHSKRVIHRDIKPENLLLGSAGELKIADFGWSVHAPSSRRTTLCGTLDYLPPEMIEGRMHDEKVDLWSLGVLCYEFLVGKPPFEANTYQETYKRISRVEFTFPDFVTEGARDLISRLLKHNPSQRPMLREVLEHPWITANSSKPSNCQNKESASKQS
Method in brief: (§1)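 Recombinant protein at 2 µM in 10 mM HEPES pH 7.5 with 500 mM NaCl was mixed with SYPRO Orange (1:1000) and heated at 3 °C/min up to 85 °C. Tm was taken as the Boltzmann-fit inflection point. Shifts are ∆Tm in K from technical duplicates.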

[3] = target: T2, CSNK1D (Homo sapiens, UniProt P48730); test: Liability panel screening by DSF: CSNK1D; format: binding; conditions: DSF, 20 µM, n=2; for ΔTm at 20 µM: read-out: Mean ΔTM CSNK1D
T2 construct: made in house
T2 sequence (P48730 whole entry, species assumed): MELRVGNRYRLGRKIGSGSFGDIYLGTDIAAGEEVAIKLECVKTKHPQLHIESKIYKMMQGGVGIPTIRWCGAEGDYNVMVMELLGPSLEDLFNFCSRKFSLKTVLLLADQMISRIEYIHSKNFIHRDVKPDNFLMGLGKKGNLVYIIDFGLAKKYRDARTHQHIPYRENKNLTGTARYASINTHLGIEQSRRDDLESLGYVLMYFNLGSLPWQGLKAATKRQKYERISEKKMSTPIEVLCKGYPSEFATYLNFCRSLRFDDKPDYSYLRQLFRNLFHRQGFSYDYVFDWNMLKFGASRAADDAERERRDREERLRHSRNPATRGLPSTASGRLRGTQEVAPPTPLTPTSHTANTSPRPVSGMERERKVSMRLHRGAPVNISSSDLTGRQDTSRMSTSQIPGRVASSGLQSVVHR
Method in brief: as §1

[4] = target: T3, BRD4 (Homo sapiens, UniProt O60885); test: Liability panel screening by DSF: BRD4; format: binding; conditions: DSF, 20 µM, n=2; for ΔTm at 20 µM: read-out: Mean ΔTM BRD4
T3 construct: This panel comprised ten highly ligandable kinases and bromodomains; made in house
Method in brief: as §1

[5] = target: T4, TRIM24 (Homo sapiens, UniProt O15164); test: Liability panel screening by DSF: TRIM24; format: binding; conditions: DSF, 20 µM, n=2; for ΔTm at 20 µM: read-out: Mean ΔTM TRIM24
T4 construct: This panel comprised ten highly ligandable kinases and bromodomains; made in house
T4 sequence (O15164 899-1004 limits assumed): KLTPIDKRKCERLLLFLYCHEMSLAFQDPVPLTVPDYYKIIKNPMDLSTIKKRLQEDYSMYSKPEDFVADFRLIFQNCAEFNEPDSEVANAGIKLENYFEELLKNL
Method in brief: as §1

[6] = target: T5, ABL1 (Homo sapiens, UniProt P00519); test: Liability panel screening by DSF: ABL1; format: binding; conditions: DSF, 20 µM, n=2; for ΔTm at 20 µM: read-out: Mean ΔTM ABL1
T5 construct: made in house
T5 sequence (P00519 whole entry, species assumed): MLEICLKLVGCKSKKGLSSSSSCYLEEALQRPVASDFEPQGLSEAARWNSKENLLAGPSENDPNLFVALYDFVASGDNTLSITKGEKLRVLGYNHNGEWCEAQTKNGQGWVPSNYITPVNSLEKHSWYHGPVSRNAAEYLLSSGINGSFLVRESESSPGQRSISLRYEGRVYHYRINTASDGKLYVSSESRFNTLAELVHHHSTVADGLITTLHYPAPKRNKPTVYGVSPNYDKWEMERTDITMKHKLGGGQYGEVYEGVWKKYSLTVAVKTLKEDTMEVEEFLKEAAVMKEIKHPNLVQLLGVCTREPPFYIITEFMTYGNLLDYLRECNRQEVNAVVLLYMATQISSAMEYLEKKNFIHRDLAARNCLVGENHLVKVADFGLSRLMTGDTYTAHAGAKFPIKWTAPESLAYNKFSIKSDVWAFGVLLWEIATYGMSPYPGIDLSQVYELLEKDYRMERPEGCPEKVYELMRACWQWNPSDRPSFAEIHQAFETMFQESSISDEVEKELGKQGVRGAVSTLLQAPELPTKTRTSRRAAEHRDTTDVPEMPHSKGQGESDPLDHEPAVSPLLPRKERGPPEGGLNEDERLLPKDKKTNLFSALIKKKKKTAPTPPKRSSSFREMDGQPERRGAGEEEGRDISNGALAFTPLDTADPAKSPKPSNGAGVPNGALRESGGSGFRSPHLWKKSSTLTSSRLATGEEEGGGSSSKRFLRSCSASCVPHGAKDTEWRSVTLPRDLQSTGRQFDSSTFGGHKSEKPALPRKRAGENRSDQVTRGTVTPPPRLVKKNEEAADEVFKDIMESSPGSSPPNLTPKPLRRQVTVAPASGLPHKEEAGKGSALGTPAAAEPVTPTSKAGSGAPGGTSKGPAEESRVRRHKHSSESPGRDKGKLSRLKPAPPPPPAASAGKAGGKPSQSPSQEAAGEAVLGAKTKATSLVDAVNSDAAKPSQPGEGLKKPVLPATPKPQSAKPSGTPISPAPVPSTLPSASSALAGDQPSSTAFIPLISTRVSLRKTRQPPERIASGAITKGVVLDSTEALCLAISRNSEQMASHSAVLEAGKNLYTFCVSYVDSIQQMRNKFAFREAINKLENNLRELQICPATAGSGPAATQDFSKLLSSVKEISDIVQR
Method in brief: as §1

[7] = target: T6, GSK3B (Homo sapiens, UniProt P49841); test: Liability panel screening by DSF: GSK3B; format: binding; conditions: DSF, 20 µM, n=2; for ΔTm at 20 µM: read-out: Mean ΔTM GSK3B
T6 construct: made in house
T6 sequence (P49841 whole entry, species assumed): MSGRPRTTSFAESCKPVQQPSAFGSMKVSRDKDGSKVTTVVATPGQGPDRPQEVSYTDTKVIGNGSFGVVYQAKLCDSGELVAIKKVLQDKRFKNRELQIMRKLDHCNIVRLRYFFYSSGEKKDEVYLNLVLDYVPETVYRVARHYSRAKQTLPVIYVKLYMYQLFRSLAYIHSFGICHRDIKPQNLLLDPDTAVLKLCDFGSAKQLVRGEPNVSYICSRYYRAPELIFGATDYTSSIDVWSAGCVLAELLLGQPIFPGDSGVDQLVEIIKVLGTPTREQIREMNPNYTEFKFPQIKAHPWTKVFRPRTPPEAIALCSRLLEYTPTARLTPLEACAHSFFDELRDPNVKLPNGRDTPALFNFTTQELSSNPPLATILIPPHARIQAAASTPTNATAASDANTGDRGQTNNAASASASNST

[8] = tested on: HEK293T cells; test: Cytotoxicity: growth-rate (change in confluence over 24 h); conditions: normalized to 0.1% DMSO control, single replicates (n=1...)
[9] = target: T7, FGFR3 (Homo sapiens, UniProt P22607); test: Liability panel screening by DSF: FGFR3; format: binding; conditions: DSF, 20 µM, n=2; for ΔTm at 20 µM: read-out: Mean ΔTM FGFR3
T7 construct: made in house
T7 sequence (P22607 23-806, species assumed): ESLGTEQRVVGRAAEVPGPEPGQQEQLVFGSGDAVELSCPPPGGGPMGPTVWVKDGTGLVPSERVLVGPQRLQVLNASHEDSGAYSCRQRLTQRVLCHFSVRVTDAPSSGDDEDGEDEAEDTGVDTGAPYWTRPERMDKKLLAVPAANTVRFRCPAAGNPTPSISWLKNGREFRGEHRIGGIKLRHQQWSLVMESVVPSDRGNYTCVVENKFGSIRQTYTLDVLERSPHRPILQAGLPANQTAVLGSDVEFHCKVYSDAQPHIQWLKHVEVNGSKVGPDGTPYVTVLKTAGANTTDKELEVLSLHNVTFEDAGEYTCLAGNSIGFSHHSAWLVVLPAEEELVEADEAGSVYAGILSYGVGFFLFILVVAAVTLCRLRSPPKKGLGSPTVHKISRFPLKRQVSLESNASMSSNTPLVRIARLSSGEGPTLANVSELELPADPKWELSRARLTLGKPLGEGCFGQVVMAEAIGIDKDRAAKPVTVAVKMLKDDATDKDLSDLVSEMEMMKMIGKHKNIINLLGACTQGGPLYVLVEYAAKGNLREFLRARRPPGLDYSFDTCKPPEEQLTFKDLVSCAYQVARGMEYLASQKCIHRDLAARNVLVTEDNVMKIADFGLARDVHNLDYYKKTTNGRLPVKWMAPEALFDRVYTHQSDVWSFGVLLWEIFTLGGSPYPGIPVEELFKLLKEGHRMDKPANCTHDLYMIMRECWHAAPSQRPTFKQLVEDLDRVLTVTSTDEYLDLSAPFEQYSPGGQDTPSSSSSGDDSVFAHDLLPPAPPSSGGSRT
Method in brief: as §1

[10] = target: T8, CDK2 (Homo sapiens, UniProt P24941); test: Liability panel screening by DSF: CDK2; format: binding; conditions: DSF, 20 µM, n=2; for ΔTm at 20 µM: read-out: Mean ΔTM CDK2
T8 construct: made in house
Method in brief: as §1

[11] = target: T9, BRPF1 (Homo sapiens, UniProt P55201); test: Liability panel screening by DSF: BRPF1; format: binding; conditions: DSF, 20 µM, n=2; for ΔTm at 20 µM: read-out: Mean ΔTM BRPF1
T9 construct: This panel comprised ten highly ligandable kinases and bromodomains; made in house
T9 sequence (P55201 628-732 limits assumed): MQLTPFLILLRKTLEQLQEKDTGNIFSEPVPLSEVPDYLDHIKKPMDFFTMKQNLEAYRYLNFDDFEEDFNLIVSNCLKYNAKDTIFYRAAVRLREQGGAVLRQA
Method in brief: as §1

[12] = target: T10, MAPK1 (Homo sapiens, UniProt P28482); test: Liability panel screening by DSF: MAPK1; format: binding; conditions: DSF, 20 µM, n=2; for ΔTm at 20 µM: read-out: Mean ΔTM MAPK1
T10 construct: made in house
T10 sequence (P28482 whole entry, species assumed): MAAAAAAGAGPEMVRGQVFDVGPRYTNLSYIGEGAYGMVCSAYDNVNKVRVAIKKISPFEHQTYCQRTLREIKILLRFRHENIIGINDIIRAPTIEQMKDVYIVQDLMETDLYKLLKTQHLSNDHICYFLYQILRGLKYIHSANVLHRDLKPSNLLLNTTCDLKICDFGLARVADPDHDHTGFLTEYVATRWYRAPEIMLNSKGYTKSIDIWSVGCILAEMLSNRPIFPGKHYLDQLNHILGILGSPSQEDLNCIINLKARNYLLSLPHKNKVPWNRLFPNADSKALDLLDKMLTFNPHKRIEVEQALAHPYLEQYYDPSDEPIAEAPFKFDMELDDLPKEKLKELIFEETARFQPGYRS
Method in brief: as §1

[13] = tested on: NF-κB activity in HEK293 NF-κB reporter cells; test: NF-kB activity assay (GFP reporter, ionomycin/PMA); format: cell-based; conditions: n=3
Method in brief: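 HEK293 NF-κB GFP reporter cells given compound in 0.1% DMSO for 4 h, then stimulated with ionomycin 100 ng/mL plus PMA 10 ng/mL. Imaged every 90 min over 24 h; GFP-positive cell count normalized to confluence, three independent biological replicates.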

[14] = tested on: HEK293T cells; test: Cytotoxicity: necrosis induction (red fluorescent dye for permeable plasma membranes); format: cell-based; conditions: 24 h, necrotic cell count normalized to 0.1% DMSO, single replicates;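 also: compounds applied in DMEM high glucose with 0.1% FCS and 0.1% DMSO, necrotic HEK293T cells counted by red staining of cells whose plasma membranes had become permeable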

Compound: CCCC1O[C@@H]2C[C@H]3[C@@H]4CCC5=CC(=O)C=C[C@]5(C)[C@H]4[C@@H](O)C[C@]3(C)[C@]2(C(=O)CO)O1 (some centres unmarked) [Budesonide]
- Apoptosis induction [AI] ([1]; 0.3 µM, DMSO 0.1% = 1.00): 1.00 and 1.74
- Apoptosis induction [AI] ([1]; 3 µM, DMSO 0.1% = 1.00): 1.77 and 1.74
- apoptosis induction ([1]; HEK293T, 24 h, budesonide (3 µM), others at tested concentration): slight apoptosis induction
- ΔTm at 20 µM [2]: -0.16 °C
- ΔTm at 20 µM [3]: -0.0262 °C
- ΔTm at 20 µM [4]: -1.67 °C
- ΔTm at 20 µM [5]: -0.81 °C
- ΔTm at 20 µM [6]: 0.48 °C
- ΔTm at 20 µM [7]: -0.4 °C
- Growth rate [GR] ([8]; 0.3 µM): 0.59 and 0.92 (3×) and 1.24 and 0.68
- Growth rate [GR] ([8]; 3 µM): 0.90 and 1.09 and 1.10 and 0.85 and 0.69 and 0.78
- ΔTm at 20 µM [9]: -0.77 °C
- ΔTm at 20 µM [10]: 0.00668 °C
- ΔTm at 20 µM [11]: -1.04 °C
- ΔTm at 20 µM [12]: -0.27 °C

Compound: CC/C(=C(/CC)c1ccc(O)cc1)c1ccc(O)cc1 [Diethylstilbestrol]
- Apoptosis induction [AI] ([1]; 0.3 µM, HEK293T, 24 h, apoptotic cell count normalized to 0.1% DMSO): 0.86 and 1.37 (2×) and 0.83 and 1.54 and 0.77
- Apoptosis induction [AI] ([1]; 3 µM, HEK293T, 24 h, apoptotic cell count normalized to 0.1% DMSO): 0.65 and 0.97 and 0.69 and 0.85 and 1.67 and 1.65
- ΔTm at 20 µM [2]: -1.78 °C
- ΔTm at 20 µM [3]: -0.81 °C
- Mean NFκB response ([13]; 0.3 µM, 1,5 h): 2313.08 GFP+-cells/confluence ∙ 1000
- Mean NFκB response ([13]; 0.3 µM, 4,5 h): 2949.70 GFP+-cells/confluence ∙ 1000
- Mean NFκB response ([13]; 0.3 µM, 7,5 h): 7538.46 GFP+-cells/confluence ∙ 1000
- Mean NFκB response ([13]; 0.3 µM, 10,5 h): 18701.55 GFP+-cells/confluence ∙ 1000
- Mean NFκB response ([13]; 0.3 µM, 13,5 h): 27206.00 GFP+-cells/confluence ∙ 1000
- Mean NFκB response ([13]; 0.3 µM, 16,6 h): 33288.00 GFP+-cells/confluence ∙ 1000
- Mean NFκB response ([13]; 0.3 µM, 19,5 h): 37133.33 GFP+-cells/confluence ∙ 1000
- Mean NFκB response ([13]; 0.3 µM, 22,5 h): 40576.67 GFP+-cells/confluence ∙ 1000
- Mean NFκB response ([13]; 0.3 µM, 3 h): 2350.33 GFP+-cells/confluence ∙ 1000
- Mean NFκB response ([13]; 0.3 µM, 6 h): 4223.97 GFP+-cells/confluence ∙ 1000
- Mean NFκB response ([13]; 0.3 µM, 9 h): 13522.53 GFP+-cells/confluence ∙ 1000
- Mean NFκB response ([13]; 0.3 µM, 12 h): 23340.33 GFP+-cells/confluence ∙ 1000
- Mean NFκB response ([13]; 0.3 µM, 15 h): 30431.00 GFP+-cells/confluence ∙ 1000
- Mean NFκB response ([13]; 0.3 µM, 18 h): 35400.00 GFP+-cells/confluence ∙ 1000
- Mean NFκB response ([13]; 0.3 µM, 21 h): 39313.33 GFP+-cells/confluence ∙ 1000
- Mean NFκB response ([13]; 0.3 µM, 24 h): 41536.67 GFP+-cells/confluence ∙ 1000
- Mean NFκB response ([13]; 3 µM, 1,5 h): 2624.20 GFP+-cells/confluence ∙ 1000
- Mean NFκB response ([13]; 3 µM, 4,5 h): 2942.05 GFP+-cells/confluence ∙ 1000
- Mean NFκB response ([13]; 3 µM, 7,5 h): 5380.00 GFP+-cells/confluence ∙ 1000
- Mean NFκB response ([13]; 3 µM, 10,5 h): 14690.00 GFP+-cells/confluence ∙ 1000
- Mean NFκB response ([13]; 3 µM, 13,5 h): 22563.33 GFP+-cells/confluence ∙ 1000
- Mean NFκB response ([13]; 3 µM, 16,6 h): 28276.67 GFP+-cells/confluence ∙ 1000
- Mean NFκB response ([13]; 3 µM, 19,5 h): 33253.33 GFP+-cells/confluence ∙ 1000
- Mean NFκB response ([13]; 3 µM, 22,5 h): 36776.67 GFP+-cells/confluence ∙ 1000
- Mean NFκB response ([13]; 3 µM, 3 h): 2684.18 GFP+-cells/confluence ∙ 1000
- Mean NFκB response ([13]; 3 µM, 6 h): 3410.00 GFP+-cells/confluence ∙ 1000
- Mean NFκB response ([13]; 3 µM, 9 h): 9373.33 GFP+-cells/confluence ∙ 1000
- Mean NFκB response ([13]; 3 µM, 12 h): 19050.00 GFP+-cells/confluence ∙ 1000
- Mean NFκB response ([13]; 3 µM, 15 h): 25776.67 GFP+-cells/confluence ∙ 1000
- Mean NFκB response ([13]; 3 µM, 18 h): 30966.67 GFP+-cells/confluence ∙ 1000
- Mean NFκB response ([13]; 3 µM, 21 h): 34670.00 GFP+-cells/confluence ∙ 1000
- Mean NFκB response ([13]; 3 µM, 24 h): 38090.00 GFP+-cells/confluence ∙ 1000
- ΔTm at 20 µM [4]: -4.78 °C
- ΔTm at 20 µM [5]: 1.49 °C
- Necrosis induction [NI] ([14]; 0.3 µM): 0.86 and 0.98 and 1.34
- Necrosis induction [NI] ([14]; 3 µM): 0.69 and 0.58 and 0.64 and 0.72
- ΔTm at 20 µM [6]: -0.96 °C
- ΔTm at 20 µM [7]: -3.54 °C
- Growth rate [GR] ([8]; 0.3 µM): 0.65 and 4.06 and 0.84 and 0.92 and 1.28 and 1.00 and 0.79 and 1.42 and 0.91 and 9.54
- Growth rate [GR] ([8]; 3 µM): reduced the growth-rate and -0.21 and 0.65 and -0.29 and 0.04 and 0.36 and 0.21 and 0.28 and 1.17 and 0.46 and -0.41
- ΔTm at 20 µM [9]: -8.29 °C
- ΔTm at 20 µM [10]: -5.57 °C
- ΔTm at 20 µM [11]: -8.49 °C
- ΔTm at 20 µM [12]: -12.2 °C

Compound: COc1ccc(-c2coc3cc(O)cc(O)c3c2=O)cc1 [Biochanin A]
- Apoptosis induction [AI] ([1]; 10 µM, DMSO 0.1% = 1.00): 0.76 and 0.84
- Mean ΔTM AURKA [2]: 1.95 K
- Mean ΔTM CSNK1D [3]: -0.77 K
- Mean ΔTM BRD4 [4]: 0.32 K
- Mean ΔTM TRIM24 [5]: 2.59 K
- Mean ΔTM ABL1 [6]: 1.61 K
- Mean ΔTM GSK3B [7]: -0.89 K
- Growth rate [GR] ([8]; 10 µM): 0.50 and 0.90 and 0.87 and 0.72 and 0.82 and 0.61
- Mean ΔTM FGFR3 [9]: 1.13 K
- Mean ΔTM CDK2 [10]: 1.69 K
- Mean ΔTM BRPF1 [11]: 2.98 K
- Mean ΔTM MAPK1 [12]: 0.55 K

Compound: C/C=C1\C(=O)C[C@H]2[C@@H]3CCC4=CC(=O)CC[C@]4(C)[C@H]3CC[C@]12C [Z-Guggulsterone]
- Apoptosis induction [AI] ([1]; 3 µM, DMSO 0.1% = 1.00): 0.63 and 1.35
- Mean ΔTM AURKA [2]: -1.78 K
- Mean ΔTM CSNK1D [3]: 0.63 K
- Mean ΔTM BRD4 [4]: -2.62 K
- Mean ΔTM TRIM24 [5]: -2.32 K
- Mean ΔTM ABL1 [6]: 0.07 K
- Mean ΔTM GSK3B [7]: -1.05 K
- Growth rate [GR] ([8]; 3 µM): 0.73 and 0.88 and 1.06 and 0.96 and 0.82 and 1.15
- Mean ΔTM CDK2 [10]: -0.30 K
- Mean ΔTM BRPF1 [11]: -1.36 K
- Mean ΔTM MAPK1 [12]: 0.47 K
